Laboratory results as given in paper PMC6745501, “Plant photoreceptors and their signaling components compete for COP1 binding via VP peptide motifs” (The EMBO Journal, 2019).
Where “and” joins values, the source holds several entries; their conditions need not be identical. Equal entries are not always repeated. Blank lines part the entries; values can stand above or below the substance they belong to.

Assays:
[1] = biological target: T1, COP1^Tyr441Ala WD40 domain (Arabidopsis thaliana, UniProt P43254, Y441A); assay type: binding; conditions: ITC, peptide into COP1^Tyr441Ala, 25°C; ± standard deviation
T1 construct: His10-Twin-Strep with TEV site (N, cleaved yes); made in house; host or cells: Spodoptera frugiperda Sf9 insect cells (baculovirus, modified pFastBac)
T1 sequence (P43254 349-675 Y441A): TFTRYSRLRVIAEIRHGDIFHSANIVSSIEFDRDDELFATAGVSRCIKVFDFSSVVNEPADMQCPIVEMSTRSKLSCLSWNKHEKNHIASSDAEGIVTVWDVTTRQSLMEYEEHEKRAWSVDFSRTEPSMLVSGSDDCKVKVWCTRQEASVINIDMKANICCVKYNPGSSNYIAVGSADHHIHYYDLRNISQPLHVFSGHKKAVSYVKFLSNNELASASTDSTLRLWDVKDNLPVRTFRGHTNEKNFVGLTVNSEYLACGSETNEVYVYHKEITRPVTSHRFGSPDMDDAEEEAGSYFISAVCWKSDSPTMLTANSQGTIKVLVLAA
Experimental: (§1) All experiments were performed in a buffer containing 150 mM NaCl, 20 mM HEPES 7.4, and 2 mM BME. […] The peptides were centrifuged at 14,000 × g for 10 min, and only the supernatant was used. The dissolved peptide concentrations were calculated based upon their absorbance at 280 nm and their corresponding molar extinction coefficient. […] Experiments were performed at 25°C and a stirring speed of 1,000 rpm on an ITC200 instrument (GE Healthcare). All data were processed using Origin 7.0 and fit to a one‐site binding model after background buffer subtraction.

[2] = biological target: T2, COP1^Lys422Ala WD40 domain (Arabidopsis thaliana, UniProt P43254, K422A); assay: biochemical; assay type: binding; conditions: for N (stoichiometry of binding), VP peptide vs. COP1^Lys422Ala: peptide into COP1^Lys422Ala, 25°C, ± standard deviation
T2 construct: His10-Twin-Strep with TEV site (N, cleaved yes); made in house; host or cells: Spodoptera frugiperda Sf9 insect cells (baculovirus, modified pFastBac)
T2 sequence (P43254 349-675 K422A): as the sequence (P43254 349-675 Y441A) above, with K74A, A93Y counted along it
Experimental: as §1

[3] = biological target: T3, Arabidopsis COP1^349–675 WD40 domain (Arabidopsis thaliana, UniProt P43254); assay: Isothermal titration calorimetry (ITC) versus the COP1 WD40 domain; assay type: binding; conditions: for N (stoichiometry of binding), VP peptide vs. COP1 WD40 domain (WT): peptide into COP1, 25°C, one-site binding model, ± standard deviation
T3 construct: His10-Twin-Strep with TEV site (N, cleaved yes); made in house; host or cells: Spodoptera frugiperda Sf9 insect cells (baculovirus, modified pFastBac)
T3 sequence (P43254 349-675): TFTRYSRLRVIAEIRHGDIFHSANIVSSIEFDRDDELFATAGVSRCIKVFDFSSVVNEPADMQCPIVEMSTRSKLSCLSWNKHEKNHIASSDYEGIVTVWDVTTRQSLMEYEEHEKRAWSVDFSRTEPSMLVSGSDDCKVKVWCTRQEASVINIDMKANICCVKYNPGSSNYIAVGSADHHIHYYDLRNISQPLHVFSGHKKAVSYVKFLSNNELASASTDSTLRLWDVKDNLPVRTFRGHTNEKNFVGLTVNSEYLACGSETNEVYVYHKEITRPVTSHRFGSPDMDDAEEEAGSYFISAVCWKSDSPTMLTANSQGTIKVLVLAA
Experimental: All experiments were performed in a buffer containing 150 mM NaCl, 20 mM HEPES 7.4, and 2 mM BME. Peptides were synthesized and delivered as lyophilized powder (Peptide Specialty Labs GmbH) and dissolved directly in buffer. The peptides were centrifuged at 14,000 × g for 10 min, and only the supernatant was used. […] Experiments were performed at 25°C and a stirring speed of 1,000 rpm on an ITC200 instrument (GE Healthcare). All data were processed using Origin 7.0 and fit to a one‐site binding model after background buffer subtraction.

[4] = biological target: COP1 WD40 domain; assay: Grating-coupled interferometry (GCI) binding kinetics versus the COP1 WD40 domain; set-up: species or system Arabidopsis; conditions: ligand COP1 (2000 pg/mm2), analyte in the absence of UV-B (ground state), highest concentration 2 μM, 1:1 binding model, read-out: Kd (dissociation constant), - UV-B
Experimental: For CRY2 activation, proteins were diluted to their final assay concentrations (as indicated in the figure legends) in Eppendorf tubes and exposed to 10 min of fluorescent light on ice.
The Creoptix WAVE system (Creoptix AG), a label‐free surface biosensor, was used to perform GCI experiments. All experiments were performed on 2PCH or 4PCH WAVEchips (quasi‐planar polycarboxylate surface; Creoptix AG). After a borate buffer conditioning (100 mM sodium borate pH 9.0, 1 M NaCl; Xantec), COP1 (ligand) was immobilized on the chip surface using standard amine‐coupling: 7 min activation [1:1 mix of 400 mM N‐(3‐dimethylaminopropyl)‐N′‐ethylcarbodiimide hydrochloride and 100 mM N‐hydroxysuccinimide (both Xantec)], injection of COP1 (10 μg/ml) in 10 mM sodium acetate pH 5.0 (Sigma) until the desired density was reached, and final quenching with 1 M ethanolamine pH 8.0 for 7 min (Xantec). […] Blank injections were used for double referencing and a dimethyl sulfoxide (DMSO) calibration curve for bulk correction. Analysis and correction of the obtained data were performed using the Creoptix WAVEcontrol software (applied corrections: X and Y offset; DMSO calibration; double referencing), and a one‐to‐one binding model or a heterogenous ligand model with bulk correction was used to fit all experiments.

[5] = system: COP1 WD40 domain; assay: Analytical size-exclusion chromatography binding assay; set-up: species or system Arabidopsis; conditions: Superdex 200 Increase 10/300 GL, ~4 μM per protein
Experimental: 500 μl of the respective protein solution or a mixture (~ 4 μM per protein) was loaded sequentially onto the column, and elution at 0.75 ml/min was monitored by UV absorbance at 280 nm.

Substance: Ac-EIRRVPEFGGY-NH2 [HY5 peptide]
N (stoichiometry of binding), VP peptide vs. COP1^Tyr441Ala [1]: 0.92 ± 0.3 | Kd [2]: 23 ± 10 µM | N (stoichiometry of binding), VP peptide vs. COP1^Lys422Ala ([2]; ITC): 0.83 ± 0.2 | Kd [3]: 23 ± 7 µM | Times stronger binding to COP1 than UVR8^406–413 ([3]; ITC, ratio of Kd values): ~ 8

Substance: Ac-RYAVVPDE-NH2 [UVR8 peptide]
N (stoichiometry of binding), VP peptide vs. COP1^Lys422Ala ([2]; ITC): 0.87 ± 0.2 | Fold increase of binding affinity for COP1^Lys422Ala compared with wild type COP1 ([2]; ITC, ratio of Kd values): ~ 10

Substance: Ac-EDQMVPSITY-NH2 [CRY1 peptide]
N (stoichiometry of binding), VP peptide vs. COP1^Lys422Ala ([2]; ITC): 0.98 ± 0.1 | N (stoichiometry of binding), VP peptide vs. COP1 WD40 domain (WT) ([3]; ITC): 0.99 ± 0.3

Substance: Ac-NDQQVPSAVY-NH2 [CRY2 peptide]
Times reduction of binding by the COP1^Lys422Ala mutation compared with wild type COP1 ([2]; ITC, ratio of Kd values): ~ 30 | Kd [3]: 21 ± 2 µM | N (stoichiometry of binding), VP peptide vs. COP1 WD40 domain (WT) ([3]; ITC): 1.04 ± 0.20

Substance: Ac-GYGIVPSFY-NH2 [CO peptide]
Kd [2]: 21 ± 10 µM | N (stoichiometry of binding), VP peptide vs. COP1^Lys422Ala ([2]; ITC): 0.89 ± 0.03 | Fold increase of binding affinity for COP1^Lys422Ala compared with wild type COP1 ([2]; ITC, ratio of Kd values): ~ 4 | N (stoichiometry of binding), VP peptide vs. COP1 WD40 domain (WT) ([3]; ITC): 1.03 ± 0.00

Substance: Ac-GFGVVPSFY-NH2 [COL3 peptide]
N (stoichiometry of binding), VP peptide vs. COP1^Lys422Ala ([2]; ITC): 0.90 ± 0.2 | N (stoichiometry of binding), VP peptide vs. COP1 WD40 domain (WT) ([3]; ITC): 0.75 ± 0.2

Kd [4]: ~1 µM and 1.3 µM | Interaction with the COP1 WD40 domain in size-exclusion chromatography, UV-B-activated ([5]; 150 mM NaCl, 20 mM HEPES 7.4, 2 mM BME, protein pre-monomerized by UV-B): interact | Interaction with the COP1 WD40 domain in size-exclusion chromatography, non-activated ([5]; absence of UV-B (dimer)): no interaction
Substance: UVR8: recombinant full-length Arabidopsis UV-B photoreceptor UVR8 expressed in insect cells
